Results published in patent publication US9351952B2, “Use of hesperetin” (NATURAL MEDICINE INSTITUTE OF ZHEJIANG YANGSHENGTANG CO., …, priority 2010, dated 2016).

Tested on: skin microcirculation in domestic rabbits
Assay: Effect of topical application of hesperetin on skin microcirculation by Laser Doppler Flowmetery
Format: in vivo, Oryctolagus cuniculus
Details: smearing the backs of rabbits with samples of different concentrations
Source text: The experimental method for promoting microcirculation: Male Oryctolagus cuniculus weighted 3.0-3.5 kg were used. After shaving the hair on the back of the Oryctolagus cuniculus, 10 points for testing blood flow were marked with a marker pen on the hairless skin of the rabbit, i.e. 5 points for each of the right side and the left side, and aorta was avoided when drawing the points. Before smearing the sample, the basic values of blood flow at the 10 points of rabbits of each experimental group were determined by Laser Doppler Flowmetery. […] 2% solution was orally administrated by a similar method in a volume 100 times compared to the volume used in the group wherein the 2% solution was administered by smearing. After administration, the blood flow value was determined every hour at the same point by Laser Doppler Flowmetery for 24 h, and the variation index of blood flow was calculated to evaluate the effect of hesperetin on the back blood of rabbits, wherein a higher variation index of blood flow indicates a better effect of promoting microcirculation. The experimental results were statistically analyzed by SPSS11.5 software, t-test was applied to the measured data to evaluate the experimental results. When P<0.1, the data may be regarded as statistically significant. In the results of Table 1, all the time points at with P<0.1 in the 24-h test were listed.

COc1ccc([C@@H]2CC(=O)c3c(O)cc(O)cc3O2)cc1O [Hesperetin]
blood flow in skin microvessels as compared to the blank side: significantly enhanced
